Patent US20090143423A1, “SOLID DISPERSION PRODUCT CONTAINING N-ARYL UREA-BASED COMPOUND” (ABBOTT GMBH & CO. KG, priority 2007, published 2009)

Assays:
in vivo = settings: rat, po, 100 mg/kg
Description: A study was conducted to evaluate effect of aging on the ABT-102 bioavailability obtained from suspensions of the spray dried material. Suspensions were prepared by stirring in water for 15 minutes at room temperature (5 mg/ml concentration). The suspensions were then stored refrigerated until dosing. Suspensions aged for 1, 4 and 7 days were compared to a suspension freshly prepared on the morning of dosing. Each of the aged suspension was evaluated in a group of three rats at a dose of 100 mg/kg (20 ml/kg). All four test formulations were evaluated in the same study. Plasma concentrations of parent drug were determined by HPLC-MS/MS.

[1] = Plasma concentration following multiple oral dosing in rat; type: in vivo, Sprague-Dawley rats; settings: for AUC / Cmax / Tmax: mean; for half-life: harmonic mean
Description: A study was conducted to explore the ABT-102 plasma concentrations following multiple oral dosing in rat. In this study, a 10, 30 or 100 mg/kg/day oral dose was administered once daily for eight consecutive days. The compound was prepared as a suspension of the spray dried material in water at concentrations appropriate for a 20 ml/kg/day dose volume in each treatment group. The study was conducted in Sprague-Dawley rats (3 male, 3 female per dose group). Animals were permitted free access to food and water throughout the study. Plasma concentrations of parent drug were determined on the first (Day 1) and last (Day 8) of dosing.

[2] = Previously conducted human pharmacokinetics of ABT-102; type: in vivo; settings: lipid-liquid formulation
From the text: However, it is anticipated that the current spray dried formulation of the invention also achieves similar pharmacokinetic profile in humans.

[3] = 10 mg/kg/day oral, Day 1, aqueous suspension of spray-dried dispersion of Example 4 (part B)
[4] = 10 mg/kg/day oral, Day 8, aqueous suspension of spray-dried dispersion of Example 4 (part B)
[5] = 30 mg/kg/day oral, Day 1, aqueous suspension of spray-dried dispersion of Example 4 (part B)
[6] = 30 mg/kg/day oral, Day 8, aqueous suspension of spray-dried dispersion of Example 4 (part B)
[7] = 100 mg/kg/day oral, Day 1, aqueous suspension of spray-dried dispersion of Example 4 (part B)
[8] = 100 mg/kg/day oral, Day 8, aqueous suspension of spray-dried dispersion of Example 4 (part B)
[9] = both sexes, Sprague-Dawley, plasma, po, 10 mg/kg/day, 10 mg/kg/day oral, Day 1, aqueous suspension of spray-dried dispersion of Example 4 (part B)
[10] = both sexes, Sprague-Dawley, plasma, po, 10 mg/kg/day, 10 mg/kg/day oral, Day 8, aqueous suspension of spray-dried dispersion of Example 4 (part B)
[11] = both sexes, Sprague-Dawley, plasma, po, 30 mg/kg/day, 30 mg/kg/day oral, Day 1, aqueous suspension of spray-dried dispersion of Example 4 (part B)
[12] = both sexes, Sprague-Dawley, plasma, po, 30 mg/kg/day, 30 mg/kg/day oral, Day 8, aqueous suspension of spray-dried dispersion of Example 4 (part B)
[13] = both sexes, Sprague-Dawley, plasma, po, 100 mg/kg/day, 100 mg/kg/day oral, Day 1, aqueous suspension of spray-dried dispersion of Example 4 (part B)
[14] = both sexes, Sprague-Dawley, plasma, po, 100 mg/kg/day, 100 mg/kg/day oral, Day 8, aqueous suspension of spray-dried dispersion of Example 4 (part B)

CC(C)(C)c1ccc2c(c1)CCC2NC(=O)Nc1cccc2[nH]ncc12 (stereo in doubt) [ABT-102, 1-((R)-5-tert-butyl-indan-1-yl)-3-(1H-indazol-4-yl)-urea]
AUC (in vivo; AUC): 12400 ng·h/mL
Cmax (in vivo; Cmax): 1160 ng/mL
Tmax (in vivo; Tmax): 4.3 h
half-life (in vivo; t1/2): 4.4 h
AUC/D [1, 3]: 0.918 μg · hr/mL per mg/kg
Cmax/D [1, 3]: 0.073 μg/mL per mg/kg
AUC ([1]; 10 mg/kg/day oral, Day 1, aqueous suspension of spray-dried dispersion of Example 4 (part B), 10 mg/kg/day): 9180 ng·h/mL
AUC/D [1, 4]: 0.725 μg · hr/mL per mg/kg
Cmax/D [1, 4]: 0.060 μg/mL per mg/kg
AUC ([1]; 10 mg/kg/day oral, Day 8, aqueous suspension of spray-dried dispersion of Example 4 (part B), 10 mg/kg/day): 7250 ng·h/mL
AUC/D [1, 5]: 0.741 μg · hr/mL per mg/kg
Cmax/D [1, 5]: 0.046 μg/mL per mg/kg
AUC ([1]; 30 mg/kg/day oral, Day 1, aqueous suspension of spray-dried dispersion of Example 4 (part B), 30 mg/kg/day): 22220 ng·h/mL
AUC/D [1, 6]: 0.498 μg · hr/mL per mg/kg
Cmax/D [1, 6]: 0.044 μg/mL per mg/kg
AUC ([1]; 30 mg/kg/day oral, Day 8, aqueous suspension of spray-dried dispersion of Example 4 (part B), 30 mg/kg/day): 14950 ng·h/mL
AUC/D [1, 7]: 0.326 μg · hr/mL per mg/kg
Cmax/D [1, 7]: 0.021 μg/mL per mg/kg
AUC ([1]; 100 mg/kg/day oral, Day 1, aqueous suspension of spray-dried dispersion of Example 4 (part B), 100 mg/kg/day): 32610 ng·h/mL
AUC/D [1, 8]: 0.362 μg · hr/mL per mg/kg
Cmax/D [1, 8]: 0.026 μg/mL per mg/kg
AUC ([1]; 100 mg/kg/day oral, Day 8, aqueous suspension of spray-dried dispersion of Example 4 (part B), 100 mg/kg/day): 36180 ng·h/mL
half-life [1, 9]: 5.9 h
Cmax [1, 9]: 730 ng/mL
Tmax [1, 9]: 2.3 h
AUC ([1]; both sexes, Sprague-Dawley, plasma, po, 10 mg/kg/day, 10 mg/kg/day oral, Day 1, aqueous suspension of spray-dried dispersion of Example 4 (part B), read-out: AUC): 9200 ng·h/mL
half-life [1, 10]: 5.4 h
Cmax [1, 10]: 600 ng/mL
Tmax [1, 10]: 3.3 h
AUC ([1]; both sexes, Sprague-Dawley, plasma, po, 10 mg/kg/day, 10 mg/kg/day oral, Day 8, aqueous suspension of spray-dried dispersion of Example 4 (part B), read-out: AUC): 7300 ng·h/mL
half-life [1, 11]: 7.8 h
Cmax [1, 11]: 1390 ng/mL
Tmax [1, 11]: 3 h
AUC ([1]; both sexes, Sprague-Dawley, plasma, po, 30 mg/kg/day, 30 mg/kg/day oral, Day 1, aqueous suspension of spray-dried dispersion of Example 4 (part B), read-out: AUC): 22200 ng·h/mL
half-life [1, 12]: 5.3 h
Cmax [1, 12]: 1320 ng/mL
Tmax [1, 12]: 3.3 h
AUC ([1]; both sexes, Sprague-Dawley, plasma, po, 30 mg/kg/day, 30 mg/kg/day oral, Day 8, aqueous suspension of spray-dried dispersion of Example 4 (part B), read-out: AUC): 15000 ng·h/mL
half-life [1, 13]: 6.3 h
Cmax [1, 13]: 2130 ng/mL
Tmax [1, 13]: 5 h
AUC ([1]; both sexes, Sprague-Dawley, plasma, po, 100 mg/kg/day, 100 mg/kg/day oral, Day 1, aqueous suspension of spray-dried dispersion of Example 4 (part B), read-out: AUC): 32600 ng·h/mL
half-life [1, 14]: 5.6 h
Cmax [1, 14]: 2610 ng/mL
Tmax [1, 14]: 4.5 h
AUC ([1]; both sexes, Sprague-Dawley, plasma, po, 100 mg/kg/day, 100 mg/kg/day oral, Day 8, aqueous suspension of spray-dried dispersion of Example 4 (part B), read-out: AUC): 36200 ng·h/mL
pharmacokinetics (Cmax and AUC) versus dose [2]: dose proportional exposures
